{"source": "paper PMC2897236", "about": "(Anesthesia and analgesia, 2009)", "key": {"GABAA receptors": {"test_system": "GABAA receptors", "conditions": "modulation of GABAA receptors; cited from earlier work"}, "[1]": {"conditions": "read-out: Anesthetic EC50; anesthetizing concentration in animals; cited from earlier work"}, "α4 β2 nACh receptors": {"test_system": "α4 β2 nACh receptors", "conditions": "inhibition; cited from earlier work"}, "glycine α1 receptors": {"biological_target": "glycine α1 receptors", "conditions": "enhancement of glycine currents; cited from earlier work"}, "glycine α1 β receptors": {"biological_target": "glycine α1 β receptors", "conditions": "enhancement of glycine currents; cited from earlier work"}, "GLIC": {"biological_target": "T1, GLIC (Gloeobacter violaceus, UniProt Q7NDN8)", "T1 sequence (Q7NDN8 44-359)": "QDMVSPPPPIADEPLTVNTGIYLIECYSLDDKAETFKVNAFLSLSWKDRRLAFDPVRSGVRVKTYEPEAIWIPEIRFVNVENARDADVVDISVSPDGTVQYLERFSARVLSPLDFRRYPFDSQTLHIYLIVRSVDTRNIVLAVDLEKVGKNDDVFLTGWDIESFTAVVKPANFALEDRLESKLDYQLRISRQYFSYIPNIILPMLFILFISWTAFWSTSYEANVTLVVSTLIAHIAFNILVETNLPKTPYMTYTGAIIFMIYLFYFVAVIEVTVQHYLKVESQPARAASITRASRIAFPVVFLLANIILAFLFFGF", "conditions": "for Hill Coefficient: Hill (one-site) fit of inhibition of GLIC currents, mean ± se; for modulation of GLIC: at anesthetizing concentrations"}, "[2]": {"conditions": "cited from earlier work"}, "[3]": {"biological_target": "α4β2 neuronal nicotinic acetylcholine receptors", "conditions": "cited from earlier work"}, "[4]": {"biological_target": "α3 β4 neuronal nicotinic acetylcholine receptors", "conditions": "cited from earlier work"}, "[5]": {"biological_target": "α2 β4 neuronal nicotinic acetylcholine receptors", "conditions": "cited from earlier work"}, "5HT3 receptors": {"test_system": "5HT3 receptors", "conditions": "cited from earlier work"}, "5HT3A receptors": {"test_system": "5HT3A receptors", "conditions": "1 MAC of halothane; cited from earlier work"}, "glycine receptors": {"test_system": "glycine receptors", "conditions": "cited from earlier work"}, "GABA receptors": {"test_system": "GABA receptors", "conditions": "nitrous oxide at 0.6 atm; cited from earlier work"}, "α4β2 nACh receptors": {"test_system": "α4β2 nACh receptors", "conditions": "nitrous oxide at 0.6 atm; cited from earlier work"}, "α4β4 nACh receptors": {"test_system": "α4β4 nACh receptors", "conditions": "nitrous oxide at 0.6 atm; cited from earlier work"}, "[6]": {"test_system": "GABAA receptors containing a δ subunit", "conditions": "cited from earlier work"}, "[7]": {"test_system": "α4β4 neuronal nicotinic acetylcholine receptors", "conditions": "75mM ethanol; cited from earlier work"}, "[8]": {"test_system": "α2β2 neuronal nicotinic acetylcholine receptors", "conditions": "75mM ethanol; cited from earlier work"}, "[9]": {"test_system": "α3β2 neuronal nicotinic acetylcholine receptors", "conditions": "cited from earlier work"}, "homomeric α7 receptors": {"test_system": "homomeric α7 receptors", "conditions": "25–50 mM ethanol, response is variable; cited from earlier work"}, "[10]": {"conditions": "IC50_1, two-site model, apparent affinity for site 1"}, "[11]": {"conditions": "IC50_2, two-site model, apparent affinity for site 2"}}, "note": "Entries after “also recorded” stand apart in the source; their conditions may differ. Where two headings read alike, the source gives them in different places."}
{"smiles": "CCOC(=O)c1cncn1[C@@H](C)c1ccccc1", "note": "(single isomer, unassigned) [S isomer]", "values": [{"measurement": "Hill Coefficient", "setting": "GABAA receptors", "value": 2.9}]}
{"smiles": "CCOC(=O)c1cncn1[C@H](C)c1ccccc1", "note": "(single isomer, unassigned) [R isomer]", "values": [{"measurement": "Hill Coefficient", "setting": "GABAA receptors", "value": 1.9}]}
{"smiles": "CC(C)c1cccc(C(C)C)c1O", "note": "[Propofol]", "values": [{"measurement": "EC50", "setting": "[1]", "value": 1.9, "unit": "µM"}, {"measurement": "Hill number", "setting": "α4 β2 nACh receptors", "value": 2.9}, {"measurement": "IC50", "setting": "α4 β2 nACh receptors", "value": 19, "unit": "µM"}, {"measurement": "EC50", "setting": "glycine α1 receptors", "value": 16, "unit": "µM"}, {"measurement": "EC50", "setting": "glycine α1 β receptors", "value": 27, "unit": "µM"}, {"measurement": "lowest concentration inhibiting currents", "setting": "GLIC", "value": "2 % of its anesthetic EC50"}, {"measurement": "effect on currents through GLIC (current tracing)", "setting": "GLIC; 1 μM propofol", "value": "inhibit currents through GLIC"}, {"measurement": "Hill Coefficient", "setting": "GLIC", "value": "0.42 ± 0.08"}, {"measurement": "Hill Coefficient", "setting": "GLIC; listed as propofol", "value": 0.42}]}
{"smiles": "[Xe]", "note": "[Xenon]", "values": [{"measurement": "Anesthetic EC50", "setting": "[2]; MAC of xenon in humans", "value": "0.71 atm ([5])"}, {"measurement": "effect on GLIC currents", "setting": "GLIC; 0.8 atm xenon", "value": "significantly inhibited currents"}, {"measurement": "effect on currents through GLIC (current tracing)", "setting": "GLIC; 80 % atm xenon", "value": "inhibit currents through GLIC"}, {"measurement": "Hill Coefficient", "setting": "GLIC", "value": "1.9 ± 0.47"}, {"measurement": "Hill Coefficient", "setting": "GLIC; listed as xenon", "value": "not different from 1; also recorded: not significantly different than 1"}]}
{"smiles": "FC(F)OC(Cl)C(F)(F)F", "note": "(stereo not drawn) [Isoflurane]", "values": [{"measurement": "EC50", "setting": "[1]", "value": 280, "unit": "µM"}, {"measurement": "Hill number", "setting": "α4 β2 nACh receptors", "value": 1.3}, {"measurement": "IC50", "setting": "α4 β2 nACh receptors", "value": 85, "unit": "µM"}, {"measurement": "IC50", "setting": "[3]; α4β2 isoform", "value": 82, "unit": "µM"}, {"measurement": "IC50", "setting": "[4]; α3 β4 isoform", "value": 56, "unit": "µM"}, {"measurement": "IC50", "setting": "[5]; α2 β4 isoform", "value": 25, "unit": "µM"}, {"measurement": "potentiation of 5HT3 receptor function", "setting": "5HT3 receptors; anesthetic concentration raised to 10 MAC", "value": "> 100", "unit": "%"}, {"measurement": "enhancement of 5HT3 receptor function", "setting": "5HT3 receptors; at MAC", "value": "less than 50%"}, {"measurement": "concentration at which inhibition of GLIC was produced", "setting": "GLIC", "value": "1 % of MAC"}, {"measurement": "effect on currents through GLIC (current tracing)", "setting": "GLIC; 0.3 mM isoflurane", "value": "inhibit currents through GLIC"}, {"measurement": "Hill Coefficient", "setting": "GLIC", "value": "0.32 ± 0.07"}, {"measurement": "Hill Coefficient", "setting": "GLIC; listed as isoflurane", "value": 0.32}]}
{"smiles": "FCOC(C(F)(F)F)C(F)(F)F", "note": "[Sevoflurane]", "values": [{"measurement": "EC50", "setting": "[1]", "value": 330, "unit": "µM"}, {"measurement": "effect on currents through 5HT3 receptors", "setting": "5HT3 receptors; at MAC", "value": "inhibiting rather than enhancing currents"}, {"measurement": "concentration at which inhibition of GLIC was produced", "setting": "GLIC", "value": "1 % of MAC"}, {"measurement": "effect on currents through GLIC (current tracing)", "setting": "GLIC; 0.3 mM sevoflurane", "value": "inhibit currents through GLIC"}, {"measurement": "Hill Coefficient", "setting": "GLIC", "value": "0.27 ± 0.1"}, {"measurement": "Hill Coefficient", "setting": "GLIC; listed as sevoflurane", "value": 0.27}]}
{"smiles": "FC(F)OC(F)C(F)(F)F", "note": "(stereo not drawn) [Desflurane]", "values": [{"measurement": "EC50", "setting": "[1]", "value": 560, "unit": "µM"}, {"measurement": "concentration at which inhibition of GLIC was produced", "setting": "GLIC", "value": "0.01 % of MAC"}, {"measurement": "effect on currents through GLIC (current tracing)", "setting": "GLIC; 0.5 mM desflurane", "value": "inhibit currents through GLIC"}, {"measurement": "Hill Coefficient", "setting": "GLIC", "value": "0.25 ± 0.05"}, {"measurement": "Hill Coefficient", "setting": "GLIC; listed as desflurane", "value": 0.25}, {"measurement": "IC50", "setting": "GLIC; [10]", "value": 0.01, "unit": "µM"}, {"measurement": "IC50", "setting": "GLIC; [11]", "value": 300, "unit": "µM"}]}
{"smiles": "FC(F)(F)C(Cl)Br", "note": "(stereo not drawn) [Halothane]", "values": [{"measurement": "EC50", "setting": "[1]", "value": 230, "unit": "µM"}, {"measurement": "potentiation of 5HT3A receptors", "setting": "5HT3A receptors", "value": "approximately 200%"}, {"measurement": "concentration at which inhibition of GLIC was produced", "setting": "GLIC", "value": "1 % of MAC"}, {"measurement": "effect on currents through GLIC (current tracing)", "setting": "GLIC; 0.25 mM halothane", "value": "inhibit currents through GLIC"}, {"measurement": "Hill Coefficient", "setting": "GLIC", "value": "0.27 ± 0.04"}, {"measurement": "Hill Coefficient", "setting": "GLIC; listed as halothane", "value": 0.27}, {"measurement": "IC50", "setting": "GLIC; [10]", "value": 0.3, "unit": "µM"}, {"measurement": "IC50", "setting": "GLIC; [11]", "value": 1100, "unit": "µM"}]}
{"smiles": "CCOC(=O)c1cncn1[C@H](C)c1ccccc1", "note": "[Etomidate]", "values": [{"measurement": "potentiation of currents through glycine receptors", "setting": "glycine receptors; 300μM etomidate", "value": 29, "unit": "%"}, {"measurement": "effect on GLIC currents relative to anesthetic concentrations", "setting": "GLIC", "value": "inhibitory only at concentrations above those used to achieve anesthesia"}, {"measurement": "effect on currents through GLIC (current tracing)", "setting": "GLIC; 50 μM etomidate", "value": "inhibit currents through GLIC"}, {"measurement": "Hill Coefficient", "setting": "GLIC", "value": "not different from 1"}]}
{"smiles": "[N-]=[N+]=O", "note": "[Nitrous Oxide]", "values": [{"measurement": "Anesthetic EC50", "setting": "[2]; MAC in humans", "value": "1.04 atm ([7])"}, {"measurement": "inhibition", "setting": "5HT3 receptors; nitrous oxide at 0.6 atm", "value": "approximately 15%"}, {"measurement": "potentiation of glycine receptor function", "setting": "glycine receptors; nitrous oxide at 0.6 atm", "value": "approximately 30%"}, {"measurement": "potentiation of GABA receptor function", "setting": "GABA receptors", "value": "~20", "unit": "%"}, {"measurement": "inhibition", "setting": "α4β2 nACh receptors", "value": 39, "unit": "%"}, {"measurement": "inhibition", "setting": "α4β4 nACh receptors", "value": 7, "unit": "%"}, {"measurement": "modulation of GLIC", "setting": "GLIC", "value": "did not modulate GLIC"}]}
{"smiles": "CCO", "note": "[Ethanol]", "values": [{"measurement": "effect on currents", "setting": "[3]; 75mM ethanol", "value": "potentiates currents"}, {"measurement": "sensitivity to ethanol", "setting": "[4]", "value": "not sensitive to ethanol"}, {"measurement": "effect on currents", "setting": "[5]; 75mM ethanol", "value": "potentiates currents"}, {"measurement": "maximal increase in currents", "setting": "5HT3 receptors; ethanol 50 to 200 mM", "value": "≤ 50", "unit": "%"}, {"measurement": "lowest potentiating concentration", "setting": "[6]", "value": 3, "unit": "mM"}, {"measurement": "effect on currents", "setting": "[7]", "value": "potentiates currents"}, {"measurement": "effect on currents", "setting": "[8]", "value": "potentiates currents"}, {"measurement": "sensitivity to ethanol", "setting": "[9]", "value": "not sensitive to ethanol"}, {"measurement": "effect on receptors", "setting": "homomeric α7 receptors", "value": "inhibits"}, {"measurement": "effect on GLIC currents", "setting": "GLIC; 200 mM ethanol compared to controls (p > 0.05)", "value": "no effect"}, {"measurement": "effect on GLIC currents", "setting": "GLIC; 200 mM ethanol compared to controls (p > 0.05), listed as ethanol", "value": "did not modulate channel currents"}, {"measurement": "modulation of GLIC", "setting": "GLIC", "value": "did not modulate GLIC"}]}
